Measurements from PubChem BioAssay (NCI).
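Briefly, cells in 96-well plates were exposed to five compound concentrations for 48 h, and endpoints were estimated by linear interpolation. Definition used: TGI = concentration required for complete inhibition of growth.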

Key:
Assay in all cases: inhibition of tumour cell growth, NCI panel, 48 h
[1] = system: MDA-N
[2] = system: IGROV1 ovarian
[3] = system: MALME-3M melanoma
[4] = system: SK-MEL-2 melanoma
[5] = system: HCT-15 colon
[6] = system: HCC-2998 colon
[7] = system: HL-60(TB) leukemia
[8] = system: RPMI-8226 leukemia
[9] = system: MOLT-4 leukemia
[10] = system: SR leukemia
[11] = system: MDA-MB-231 breast
[12] = system: SN12C renal
[13] = system: SNB-75 CNS
[14] = system: TK-10 renal
[15] = system: NCI-H460 lung
[16] = system: UACC-257 melanoma
[17] = system: COLO 205 colon
[18] = system: BT-549 breast
[19] = system: U251 CNS

Row | SMILES | TGI [1] [µM] | TGI [2] [µM] | TGI [3] [µM] | TGI [4] [µM] | TGI [5] [µM] | TGI [6] [µM] | TGI [7] [µM] | TGI [8] [µM] | TGI [9] [µM] | TGI [10] [µM] | TGI [11] [µM] | TGI [12] [µM] | TGI [13] [µM] | TGI [14] [µM] | TGI [15] [µM] | TGI [16] [µM] | TGI [17] [µM] | TGI [18] [µM] | TGI [19] [µM]
1 | N#Cc1c(O)cc(=O)n2c1[nH]c1ccccc12 | > 100 | > 100 | > 100 | > 100 | > 100 | > 100 | > 100 | > 100 | > 100 | > 100 | > 100 | > 100 | > 100 | > 100 | > 100 | > 100 | > 100 | > 100 | > 100
2 | C=C(C)C(O)C(O)C[C@@H](C)C1CC[C@]23C[C@]12CCC1[C@@]2(C)CCC(OC(C)=O)C(C)(C)C2CC(OC2OC(CO)C(O)C(O)C2O)[C@]13C (some centres not stated) | 31.1 | 28.8 | 32.3 | 30.6 | > 100 | 29.1 | 36.7 | 46.5 | 38.3 | 36.3 | 28.2 | 30.9 | 43 | 56.2 | 34.5 | 31.4 | 31.5 | 27.6 | 29.1
3 | N#Cc1c(Cl)nc2ccccc2c1N=[N+]=[N-] | 26.8 | 3.9 | 3.75 | 5.12 | 4.3 | 14.4 | 3.3 | 7.89 | 3.17 | 3.93 | 3.62 | 10.7 | 21.9 | 9.82 | 21.4 | 27.8 | 3.56 | 4.16 | 12.5
